Where two headings read alike, the source gives them in different places.

Holding throughout (format): cell-based
In assay [1] the test system is human breast cancer cells MCF7. The experiment in a line: MTT assay, survival/growth of cultured human breast cancer cells MCF7. Particulars: for EC50: figure legends, survival of cultured MCF7 cells, MTT, six days after drug treatment, read-out: ED50 (the source's name); for IC50: read-out: concentration needed for 50% growth inhibition (ID50), Table 3, MCF7. Here is the method:
(§1) As shown in Table 3 and FIGS. 1–32, several novel conformationally restricted polyamine analogs were tested for anti-proliferative properties against cancer cells.
(§2) Human breast cancer cell line MCF7 was grown in Richter's Improved Modified Eagle's Medium supplemented with 10% fetal bovine serum (FBS) and 2.2 g/L sodium bicarbonate. Human brain tumor cell line U251 MG-NCI was grown in Dulbecco's Modified Eagle's Medium supplemented with 10% FBS. Human lung cancer cell line A549 was grown in Ham's F-12K medium (Cellgro, Mediatech, Inc., VA), supplemented with 10% FBS and 2 mM L-glutamine. Human colon cancer cell line HT29 was cultured in McCoy's 5A medium (Gibco, BRL, Gaithersburg, Md.) supplemented with 10% FBS. Human prostate cancer cell lines PC-3, LNCAP and DuPro were grown in RPMI 1640 Medium (Cellgro, Mediatech, Inc., VA) supplemented with 10% FBS. Another human prostate cancer cell line DU145 was grown in Dulbecco's Modified Eagle's Medium (Gibco, BRL, Gaithersburg, Md.) supplemented with 5% FBS. The A549, MCF7, PC3, LNCAP and DuPro cell lines were cultured in 100 units/mL penicillin and 100 μg/mL streptomycin. HT29 and U251MG cell lines were grown in 50 μg/mL gentamycin (Gibco, BRL, Gaithersburg, Md.). DU145 cell line was maintained in 1% antibitic-antimycotic solution (Sigma, St. Louis, Mo.). The cell cultures were maintained at 37° C. in 5% CO2/95% humidified air. DuPro cells were obtained from M. Eileen Dolan, University of Chicago. All other cells are available from the American Type Culture Collection, Rockville, Md.
(§3) A conventional MTT assay was used to evaluate percent cell survival. Exponentially growing monolayer cells were plated in 96-well plates at a density of 500 cells per well and allowed to grow for 24 hours. Serial dilutions of the drugs were added to the wells. Six days after drug treatment, 25 μl of MTT solution (5 mg/ml) was added to each well and incubated for 4 hours at 37° C. Then 100 μl of lysis buffer (20% sodium dodecyl sulfate, 50% DMF, and 0.8% acetic acid, pH 4.7) was added to each well and incubated for an additional 22 hours. A microplate reader (“EMAX”-brand, Molecular Devices, Sunnyvale, Calif.) set at 570 nm was used to determine the optical density of the cultures. Results are expressed as a ratio of the optical density in drug-treated wells to the optical density in wells treated with vehicle only.
In general terms: Tetrazolium dyes change colour on reduction, which living cells bring about.

Assay [2] concerns human lung cancer cells A549. The experiment in a line: MTT assay, survival/growth of cultured human lung cancer cells A549. Conditions: for EC50: figure legends, survival of cultured A549 cells, MTT, six days after drug treatment, read-out: ED50 (the source's name); for IC50: read-out: concentration needed for 50% growth inhibition (ID50), Table 3, A549. On the procedure:
as §1, §2, §3

In assay [3] the test system is human prostate cancer cells PC3. As to the kind of experiment: MTT assay, survival/growth of cultured human prostate cancer cells PC3. Particulars: for EC50: figure legends, survival of cultured PC3 cells, MTT, six days after drug treatment, read-out: ED50 (the source's name). Here is the method: as §2, §3
(§4) Using the protocols of Example 2, the porphyrin-polyamine conjugates were tested for activity in vitro in various cancer cell lines.

The subject of assay [4] is human prostate cancer cells DU145. The experiment in a line: MTT assay, survival/growth of cultured human prostate cancer cells DU145. Particulars: for EC50: figure legends, survival of cultured DU145 cells, MTT, six days after drug treatment, read-out: ED50 (the source's name); for IC50: DU-145. On the procedure:
as §2, §3, §4

Assay [5] concerns human colon cancer cells HT29. The experiment in a line: MTT assay, survival/growth of cultured human colon cancer cells HT29. Conditions: for EC50: figure legends, survival of cultured HT29 cells, MTT, six days after drug treatment, read-out: ED50 (the source's name); for IC50: read-out: concentration needed for 50% growth inhibition (ID50), Table 3, HT-29. On the procedure:
as §1, §2, §3

Assay [6] deals with human brain tumor cells U251 MG NCI. The experiment in a line: MTT assay, survival/growth of cultured human brain tumor cells U251 MG NCI. On the procedure: as §2, §3
Assay [7] deals with human prostate cancer cells DUPRO. As to the kind of experiment: MTT assay, survival/growth of cultured human prostate cancer cells DUPRO. Here is the method:
as §2, §3, §4

The mark [8] stands for this setting: Homo sapiens, read-out: concentration needed for 50% growth inhibition (ID50), Table 3, PC-3.
Where [9] appears, read: Homo sapiens, read-out: concentration needed for 50% growth inhibition (ID50), Table 3.
[10] abbreviates: Homo sapiens, 144 h, figure legends, survival of cultured DUPRO cells, MTT, six days after drug treatment, read-out: ED50 (the source's name).
The mark [11] stands for this setting: Homo sapiens, read-out: concentration needed for 50% growth inhibition (ID50), Table 3, DUPRO.

`CCNCCCNCCCCNCCCNCC` [BE-343, N1,N12-bis(ethyl) spermine, reference compound]: the EC50 worked out at 500 nM in assay [1]; 200 nM in assay [2]; 240 nM in assay [3]; 44 nM in assay [4]; 600 nM in assay [5]; 140 nM in assay [6] (figure legends, survival of cultured U251 MG NCI cells, MTT, six days after drug treatment, read-out: ED50 (the source's name)).
Turning to `CNCCCNC[C@H]1CC[C@H]1CNCCCNC` [SL-11090], the IC50 in assay [1] (Homo sapiens) is over 31200 nM; in assay [2] (Homo sapiens), over 31200 nM; in assay [3] (setting [8]), over 31.2 µM; in assay [4] (setting [9]), over 31.2 µM; in assay [5] (Homo sapiens), over 31200 nM; in assay [6] (Homo sapiens, U-251, read-out: concentration needed for 50% growth inhibition (ID50), Table 3, U251MG) it was over 31200 nM.
As to `CCNC/C=C\CNC/C=C\CNCCCCNCC` [SL-11119], the IC50 in assay [3] (read-out: concentration needed for 50% growth inhibition (ID50), Table 3, PC-3) is over 31.2 µM; in assay [4] (read-out: concentration needed for 50% growth inhibition (ID50), Table 3), 0.08 µM; in assay [5] it was 970 nM; in assay [7] (read-out: concentration needed for 50% growth inhibition (ID50), Table 3, DUPRO) it was 0.44 µM. The EC50 amounted to 80 nM in assay [4] and 440 nM in assay [7] (figure legends, survival of cultured DUPRO cells, MTT, six days after drug treatment, read-out: ED50 (the source's name)).
Take `CCNCCCCNC/C=C\CNCCCCNCCCCNCC` [SL-11122]: the EC50 in assay [1] (Homo sapiens, 144 h) was over 31200 nM; in assay [2] (Homo sapiens, 144 h), over 31200 nM; in assay [3] (Homo sapiens, PC-3, 144 h), over 31200 nM; in assay [4] (Homo sapiens, DU-145, 144 h), 80 nM; in assay [7] (setting [10]) it was 560 nM. Moreover, the IC50 is over 31200 nM in assay [1] (Homo sapiens); over 31200 nM in assay [2] (Homo sapiens); over 31.2 µM in assay [3] (setting [8]); 0.8 µM in assay [4] (setting [9]); 800 nM in assay [5] (Homo sapiens); 0.56 µM in assay [7] (setting [11]).
Turning to `CCNCCCCNC/C=C\CNC/C=C\CNCCCCNCC` [SL-11123], the EC50 in assay [1] (Homo sapiens, 144 h) was over 31200 nM; in assay [2] (Homo sapiens, 144 h), over 31200 nM; in assay [3] (Homo sapiens, PC-3, 144 h) it was over 31200 nM; in assay [4] (Homo sapiens, DU-145, 144 h), 510 nM. The IC50 in assay [1] (Homo sapiens) was over 31200 nM; in assay [2] (Homo sapiens), over 31200 nM; in assay [3] (setting [8]) it was over 31.2 µM; in assay [4] (setting [9]), 0.51 µM; in assay [5] (Homo sapiens) it was 10400 nM; in assay [7] (setting [10]), over 31.2 µM. Also, in assay [7] (setting [11]), the IC50 was over 31.2 µM.
As to `CCNC1CCCC1CNCCCNCC1CCCC1NCC` (centres unmarked) [SL-11124], the EC50 in assay [1] (Homo sapiens, 144 h) is over 31200 nM; in assay [2] (Homo sapiens, 144 h), over 31200 nM; in assay [3] (Homo sapiens, PC-3, 144 h), over 31200 nM; in assay [4] (Homo sapiens, DU-145, 144 h), over 31200 nM; in assay [5] (Homo sapiens, HT-29, 144 h), over 31200 nM; in assay [7] (setting [10]) it was over 31200 nM. Also, the IC50 was over 31200 nM in assay [1] (Homo sapiens); over 31200 nM in assay [2] (Homo sapiens); over 31.2 µM in assay [3] (setting [8]); over 31.2 µM in assay [4] (setting [9]); over 31200 nM in assay [5] (Homo sapiens); over 31.2 µM in assay [7] (setting [11]).
With `CCNC/C=C\CNC/C=C\CNCCCCNCCCCNCC` [SL-11127], the EC50 is over 31200 nM in assay [3] (Homo sapiens, PC-3, 144 h); 220 nM in assay [4] (Homo sapiens, DU-145, 144 h); 1300 nM in assay [7] (setting [10]). The IC50 in assay [3] (setting [8]) is over 31.2 µM; in assay [4] (setting [9]), 0.22 µM; in assay [5] (Homo sapiens), 2910 nM; in assay [7] (setting [11]), 1.3 µM.
Regarding `CCNC/C=C\CNC/C=C\CNCCCCNC/C=C\CNCC` [SL-11129], the EC50 in assay [3] (Homo sapiens, PC-3, 144 h) was 1700 nM; in assay [4] (Homo sapiens, DU-145, 144 h), 320 nM. The IC50 is 1.7 µM in assay [3] (setting [8]) and over 31.2 µM in assay [7] (setting [10]).
`CCNC/C=C\CNC/C=C\CNC/C=C\CNCCCCNCC` [SL-11130]: the EC50 in assay [3] (Homo sapiens, PC-3, 144 h) was over 31200 nM; in assay [4] (Homo sapiens, DU-145, 144 h), 430 nM. Besides, the IC50 is over 31.2 µM in assay [3] (setting [8]), 0.43 µM in assay [4] (setting [9]) and over 31.2 µM in assay [7] (setting [10]).
As to `CCNCCCNCCCNCC1CCCC1NCC` (centres unmarked) [SL-11132], the EC50 in assay [3] (Homo sapiens, PC-3, 144 h) is over 31200 nM; in assay [4] (Homo sapiens, DU-145, 144 h) it was 15 nM; in assay [7] (setting [10]), over 31200 nM.
Turning to `CCNC/C=C\CNCCCCNC/C=C\CNCCCCNCC` [SL-11133], the EC50 is over 31200 nM in assay [3] (Homo sapiens, PC-3, 144 h) and 340 nM in assay [4] (Homo sapiens, DU-145, 144 h). Further, in assay [7] (setting [10]), the IC50 was found to be 31.2 µM.
For `CCNCCCCNCCCCNCCCCNCCCC1=C(C)c2cc3[nH]c(cc4nc(cc5[nH]c(cc1n2)c(CCCNCCCCNCCCCNCCCCNCC)c5C)C(CC)=C4C)c(CC)c3C` [SL-11202], the IC50 in assay [3] (Homo sapiens, Table 4, PC3, growth by MTT assay, read-out: IC50 (μM) in different cell lines) was found to be 1.15 µM; in assay [4] (Homo sapiens, Table 4, DU145, growth by MTT assay, read-out: IC50 (μM) in different cell lines) it was 4.6 µM; in assay [7] (Homo sapiens, Table 4, DUPRO, growth by MTT assay, read-out: IC50 (μM) in different cell lines) it was 1.3 µM.

These data come from patent publication US7186825B2, “Conformationally restricted polyamine analogs as disease therapies” (Cellgate, Inc., priority 1999, dated 2007).
